“Also recorded” adds a separate entry of the source.
Each molecule was assayed on M17-SYNwt cells (assay: α-synuclein cytotoxicity assay (LDH leakage from paraquat-treated cells)). Conditions: Homo sapiens; Table 3, tested according to the procedure of example 12.
Format: cell-based, human
Experimental: 1,2,4-thiadazole compounds made according to the methods described herein were screened for activity using the α-synuclein cytotoxicity assay as described above. Dose responses were carried out on all compounds found to be active (10 point curves in duplicate).

Molecule `O=S(=O)(c1cccs1)N1CCN(c2nc(Cc3ccc(F)cc3)ns2)CC1` [Example 50, 1-[thiophen-2-ylsulfonyl]-4-[3-(4-fluoro-benzyl)-1,2,4-thiadiazol-5-yl]piperazine] has an EC50 of 468 nM.

Same assay, conditions: Homo sapiens; inhibition of synuclein cytotoxicity, paraquat-treated M17-SYNwt cells, 10 point curves in duplicate

In order of falling EC50:
1. CC1CN(c2nc(Cc3ccc(F)cc3)ns2)CCN1S(=O)(=O)c1cccc(C(F)(F)F)c1 (stereo not drawn) [Compound 46, 1-[3-trifluorophenylsulfonyl]-4-[3-(4-fluorobenzyl)-1,2,4-thiadiazol-5-yl]-2-methylpiperazine]  1.34 µg/mL
2. CCCCCCc1ccc(C(=O)NCCN2CCN(c3nc(Cc4ccc(F)cc4)ns3)CC2)cc1 [Compound 96, 4-hexyl-N-{2-[4-[3-(4-fluorobenzyl)-1,2,4-thiadiazol-5-yl]piperazin-1-yl]ethyl}benzamide]  0.8 µg/mL
3. Cc1ccccc1NC(=O)N1CCN(c2nc(Cc3ccc(F)cc3)ns2)CC1C (stereo not drawn) [Compound 10, N-(2-methylphenyl)-4-[3-(4-fluorobenzyl)-1,2,4-thiadiazol-5-yl]-2-methylpiperazine-1-carboxamide]  0.6 µg/mL
4. CC1CN(c2nc(Cc3ccc(F)cc3)ns2)CCN1C(=O)CCc1ccccc1 (stereo not drawn) [Compound 89, 1-(3-phenylpropanoyl)-4-[3-(4-fluorobenzyl)-1,2,4-thiadiazol-5-yl]-2-methylpiperazine]  0.6 µg/mL
5. CC1CN(c2nc(Cc3ccc(F)cc3)ns2)CCN1C(=O)c1cccc(Br)c1 (stereo not drawn) [Compound 142, 1-(3-bromobenzoyl)-4-[3-(4-fluorobenzyl)-1,2,4-thiadiazol-5-yl]-2-methylpiperazine]  0.5 µg/mL
6. Cc1ccc(C(=O)N2CCN(c3nc(Cc4ccc(F)cc4)ns3)CC2C)cc1 (stereo not drawn) [Compound 139, 1-(4-methylbenzoyl)-4-[3-(4-fluorobenzyl)-1,2,4-thiadiazol-5-yl]-2-methylpiperazine]  0.4 µg/mL
7. CCCCCc1ccc(C(=O)N2CCN(c3nc(Cc4ccc(C)cc4)ns3)CC2C)cc1 (stereo not drawn) [Compound 134, 1-(4-pentylbenzoyl)-4-[3-(4-methylbenzyl)-1,2,4-thiadiazol-5-yl]-2-methylpiperazine]  0.3 µg/mL
8. Cc1cccc(C)c1NC(=O)N1CCN(c2nc(Cc3ccc(F)cc3)ns2)CC1C (stereo not drawn) [Compound 19, N-(2,6-dimethylphenyl)-4-[3-(4-fluorobenzyl)-1,2,4-thiadiazol-5-yl]-2-methylpiperazine-1-carboxamide]  0.2 µg/mL
9. Cc1ccc(Cc2nsc(N3CCN(S(=O)(=O)c4cc(Cl)ccc4Cl)C(C)C3)n2)cc1 (stereo not drawn) [Compound 36, 1-[2,5-dichlorophenylsulfonyl]-4-[3-(4-methylbenzyl)-1,2,4-thiadiazol-5-yl]-2-methylpiperazine]  0.1 µg/mL
10. O=S(=O)(c1ccc2ccccc2c1)N1CCN(c2nc(Cc3ccc(Cl)cc3)ns2)CC1 [Compound 52, 1-[2-naphthylsulfonyl]-4-[3-(4-chlorobenzyl)-1,2,4-thiadiazol-5-yl]piperazine]  0.1 µg/mL
11. O=S(=O)(c1ccc(O)cc1)N1CCN(c2nc(Cc3ccc(F)cc3)ns2)CC1 [Compound 217, 1-(4-hydroxybenzenesulfonyl)-4-[3-(4-fluoro-benzyl)-1,2,4-thiadiazol-5-yl]piperazine]  0.033 µg/mL
12. COc1ccc(S(=O)(=O)N2CCN(c3nc(Cc4ccc(F)c(C)c4)ns3)CC2)cc1 [Compound 204]  0.001 µg/mL
13. COc1ccc(S(=O)(=O)N2CCN(c3nc(Cc4cccc(OC)c4)ns3)CC2)cc1 [Compound 53, 1-[4-methoxyphenylsulfonyl]-4-[3-(3-methoxybenzyl)-1,2,4-thiadiazol-5-yl]piperazine]  0.00066 µg/mL

Same assay, conditions: Table 3, tested according to the procedure of example 12

In order of rising “% inh.” value:
1. O=S(=O)(c1cccs1)N1CCN(c2nc(Cc3ccc(F)cc3)ns2)CC1 [Example 50, 1-[thiophen-2-ylsulfonyl]-4-[3-(4-fluoro-benzyl)-1,2,4-thiadiazol-5-yl]piperazine]  89%
2. COc1ccc(S(=O)(=O)N2CCN(c3nc(Cc4cccc(OC)c4)ns3)CC2C)cc1 (stereo not drawn) [Compound 208, 1-[4-methoxyphenylsulfonyl]-4-[3-(3-methoxybenzyl)-1,2,4-thia-diazol-5-yl]-2-methyl-piperazine]  92%

Same assay, conditions: paraquat-treated M17-SYNwt cells, dose response

For `Cc1cccc(C)c1NC(=O)N1CCN(c2nc(Cc3ccc(F)cc3)ns2)CC1C` (stereo not drawn) [Compound 19, N-(2,6-dimethylphenyl)-4-[3-(4-fluorobenzyl)-1,2,4-thiadiazol-5-yl]-2-methylpiperazine-1-carboxamide], the “reduction of LDH activity in the medium (inhibition of α-synuclein mediated toxicity), FIG. 2” value was “inhibition of α-synuclein mediated toxicity; also recorded: able, in a dose-dependent manner, to reduce LDH activity in the medium”.

Same assay, conditions: percent inhibition of synuclein cytotoxicity, LDH release, paraquat-treated M17-SYNwt cells, at most effective concentration of test cmpd

In order of rising “% I” value:
1. O=S(=O)(Cc1ccccc1)N1CCN(c2nc(Cc3ccc(Cl)cc3)ns2)CC1 [Compound 76, 1-(benzylsulfonyl)-4-[3-(4-chlorobenzyl)-1,2,4-thiadiazol-5-yl]piperazine]  40%
2. CC(C)(C)c1ccc(S(=O)(=O)N2CCN(c3nc(Cc4ccc(F)cc4)ns3)CC2)cc1 [Compound 61, 1-[4-ter-butylphenylsulfonyl]-4-[3-(4-fluorobenzyl)-1,2,4-thiadiazol-5-yl]piperazine]  47%
3. CCCCCCCCS(=O)(=O)N1CCN(c2nc(Cc3ccc(C)cc3)ns2)CC1 [Compound 82, 1-(octylsulfonyl)-4-[3-(4-methylbenzyl)-1,2,4-thiadiazol-5-yl]piperazine]  50%
4. CC1CN(c2nc(Cc3ccc(F)cc3)ns2)CCN1S(=O)(=O)c1ccc(C(C)(C)C)cc1 (stereo not drawn) [Compound 54, 1-[4-tert-butylphenylsulfonyl]-4-[3-(4-fluorobenzyl)-1,2,4-thiadiazol-5-yl]-2-methylpiperazine]  60%
5. Cc1ccc(Cc2nsc(N3CCN(C(=O)c4ccc(Br)cc4)CC3)n2)cc1 [Compound 164, 1-(4-bromobenzoyl)-4-[3-(4-methylbenzyl)-1,2,4-thiadiazol-5-yl]piperazine]  60%
6. CC1CN(c2nc(Cc3ccc(F)cc3)ns2)CCN1C(=O)c1cccc(C(F)(F)F)c1 (stereo not drawn) [Compound 145, 1-(3-trifluoromethylbenzoyl)-4-[3-(4-fluorobenzyl)-1,2,4-thiadiazol-5-yl]-2-methylpiperazine]  60%
7. O=C(c1ccccc1)N1CCN(c2nc(Cc3ccc(F)cc3)ns2)CC1 [Compound 181, 1-benzoyl-4-[3-(4-fluorobenzyl)-1,2,4-thiadiazol-5-yl]piperazine]  60%
8. CC1CN(c2nc(Cc3ccc(F)cc3)ns2)CCN1S(=O)(=O)c1cccc(C(F)(F)F)c1 (stereo not drawn) [Compound 46, 1-[3-trifluorophenylsulfonyl]-4-[3-(4-fluorobenzyl)-1,2,4-thiadiazol-5-yl]-2-methylpiperazine]  64%
9. CCOc1ccc(NC(=O)N2CCN(c3nc(Cc4ccc(F)cc4)ns3)CC2C)cc1 (stereo not drawn) [Compound 14, N-(4-ethoxyphenyl)-4-[3-(4-fluorobenzyl)-1,2,4-thiadiazol-5-yl]-2-methylpiperazine-1-carboxamide]  70%
10. CC1CN(c2nc(Cc3ccc(F)cc3)ns2)CCN1C(=O)Nc1ccc(F)c(F)c1 (stereo not drawn) [Compound 26, N-(3,4-difluorophenyl)-4-[3-(4-fluorobenzyl)-1,2,4-thiadiazol-5-yl]-2-methylpiperazine-1-carboxamide]  70%
11. O=C(c1cccc(F)c1)N1CCN(c2nc(Cc3ccc(Cl)cc3)ns2)CC1 [Compound 157, 1-(3-fluorobenzoyl)-4-[3-(4-chlorobenzyl)-1,2,4-thiadiazol-5-yl]piperazine]  70%
12. CCC(=O)Oc1ccc(S(=O)(=O)N2CCN(c3nc(Cc4ccc(F)cc4)ns3)CC2)cc1 [Compound 200, 1-(4-propionyloxy)benzene-sulfonyl-4-[3-(4-fluoro-benzyl)-1,2,4-thiadiazol-5-yl]piperazine]  80%
13. O=C(Cc1ccc(F)cc1)NCCN1CCN(c2nc(Cc3ccc(F)cc3)ns2)CC1 [Compound 107, 2-(4-fluorophenyl)-N-{2-[4-[3-(4-fluorobenzyl)-1,2,4-thiadiazol-5-yl]piperazin-1-yl]ethyl}acetamide]  80%
14. O=C(NCCN1CCN(c2nc(Cc3ccc(F)cc3)ns2)CC1)c1ccc(F)cc1 [Compound 102, 4-fluoro-N-{2-[4-[3-(4-fluorobenzyl)-1,2,4-thiadiazol-5-yl]piperazin-1-yl]ethyl}benzamide]  80%
15. CCCCS(=O)(=O)N1CCN(c2nc(Cc3ccc(Cl)cc3)ns2)CC1 [Compound 81, 1-(butylsulfonyl)-4-[3-(4-chlorobenzyl)-1,2,4-thiadiazol-5-yl]piperazine]  80%
16. COc1ccc(S(=O)(=O)N2CCN(c3nc(Cc4ccc(F)c(C)c4)ns3)CC2)cc1 [Compound 204]  90%
17. CCCCCc1ccc(C(=O)NCCN2CCN(c3nc(Cc4ccc(F)cc4)ns3)CC2)cc1 [Compound 94, 4-pentyl-N-{2-[4-[3-(4-fluorobenzyl)-1,2,4-thiadiazol-5-yl]piperazin-1-yl]ethyl}benzamide]  90%
18. Cc1ccc(Cc2nsc(N3CCN(C/C=C/c4ccccc4)CC3)n2)cc1 [Compound 91, 1-[3-phenylprop-2-enyl]-4-[3-(4-methylbenzyl)-1,2,4-thiadiazol-5-yl]piperazine]  90%

What follows are molecules tested on dopaminergic substantia nigra neurons (assay: In vivo inhibition of paraquat-triggered loss of substantia nigra neurons (TH immunohistochemistry)). Conditions: mice, paraquat intraperitoneal, compound not higher than 20 mg/kg body weight/day, 8 weeks, versus vehicle.
Experimental: In order to model neuronal loss in the substantia nigra region of the brain, mice were treated with paraquat (intraperitoneal) at a dose not higher than 8 mg/kg/day for a continuous period of 15-100 days. These mice were also chronically co-treated during that period with: • compound 60 (1-[4-methoxyphenylsulfonyl]-4-[3-(4-methylbenzyl)-1,2,4-thiadiazol-5-yl]-2-methylpiperazine), or • compound 32 (1-[4-methoxyphenylsulfonyl]-4-[3-(4-fluorobenzyl)-1,2,4-thiadiazol-5-yl]piperazine), or • compound 53 (1-[4-methoxyphenylsulfonyl]-4-[3-(3-methoxy-benzyl)-1,2,4-thiadiazol-5-yl]piperazine), each being administered at a dose not higher than 20 mg/kg body weight/day), or by vehicle only (no active compound). Mice treatment by means of vehicle or a compound of the invention started 2 days before administration of paraquat.
At the end of the treatment period, mice were sacrificed and the corresponding brains were used for immunohistochemical analysis. […] Using antibodies raised against tyrosin hydroxylase (anti-tyrosin hydroxylase), tyrosine hydroxylase containing neurons in the brains were detected.
Three groups of mice were treated with either paraquat and compound 53 (group 3; n=6), or paraquat and vehicle of compound 53 (group 2; n=4), or vehicle paraquat and vehicle of compound 53 (group 1; n=3). […] Per mouse, the median % TH-positive areas (of the substantia nigra regions) was determined. […]

With `COc1ccc(S(=O)(=O)N2CCN(c3nc(Cc4cccc(OC)c4)ns3)CC2)cc1` [Compound 53, 1-[4-methoxyphenylsulfonyl]-4-[3-(3-methoxybenzyl)-1,2,4-thiadiazol-5-yl]piperazine] the “protection of TH-positive substantia nigra area against paraquat-triggered degeneration” value was “inhibition of paraquat-triggered degeneration of substantia nigra cells; also recorded: protects dopaminergic substantia nigra neurons against paraquat-triggered degeneration”.

Source: US8541406B2, “Thiadiazole derivatives for the treatment of neurodegenerative diseases” (NV reMYND, priority 2006, dated 2013)
